Tests used:
Test in all cases: biochemical
Set-up in all cases: SelectScreen Z'-LYTE purified kinase panel, per cent inhibition, mean of two points
Conditions in all cases: (μM)=Km app
ABL1 = ABL1 (Homo sapiens, UniProt P00519)
AKT2 (PKB beta) = AKT2 (PKB beta) (Homo sapiens, UniProt P31751)
ALK = ALK (Homo sapiens, UniProt Q9UM73)
BTK = BTK (Homo sapiens, UniProt Q06187)
CSNK1D (CK1 delta) = CSNK1D (CK1 delta) (Homo sapiens, UniProt P48730)
EGFR (ErbB1) = EGFR (ErbB1) (Homo sapiens, UniProt P00533)
EGFR (ErbB1) L858R = EGFR (ErbB1) L858R (Homo sapiens, UniProt P00533, L858R)
ERBB4 (HER4) = ERBB4 (HER4) (Homo sapiens, UniProt Q15303)
GSK3B (GSK3 beta) = GSK3B (GSK3 beta) (Homo sapiens, UniProt P49841)
MAPK11 (p38 beta) = MAPK11 (p38 beta) (Homo sapiens, UniProt Q15759)
MAPKAPK5 (PRAK) = molecular target: T1, MAPKAPK5 (PRAK) (Homo sapiens, UniProt Q8IW41)
T1 sequence (Q8IW41 1-473): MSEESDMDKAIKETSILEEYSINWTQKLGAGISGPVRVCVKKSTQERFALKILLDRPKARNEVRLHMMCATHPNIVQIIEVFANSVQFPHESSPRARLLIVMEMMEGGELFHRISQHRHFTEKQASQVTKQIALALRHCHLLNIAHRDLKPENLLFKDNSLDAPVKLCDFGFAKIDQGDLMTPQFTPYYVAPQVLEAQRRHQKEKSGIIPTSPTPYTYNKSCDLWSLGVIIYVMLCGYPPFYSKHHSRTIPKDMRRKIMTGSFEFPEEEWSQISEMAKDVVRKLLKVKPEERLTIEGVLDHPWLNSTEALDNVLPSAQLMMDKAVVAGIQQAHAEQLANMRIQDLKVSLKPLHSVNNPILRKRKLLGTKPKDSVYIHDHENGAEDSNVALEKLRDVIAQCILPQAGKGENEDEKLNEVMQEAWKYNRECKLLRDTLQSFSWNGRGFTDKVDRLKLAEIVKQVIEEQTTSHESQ

MET (cMet) = MET (cMet) (Homo sapiens, UniProt P08581)
PAK4 = PAK4 (Homo sapiens, UniProt O96013)
PDGFRA (PDGFR alpha) = PDGFRA (PDGFR alpha) (Homo sapiens, UniProt P16234)
PIM2 = PIM2 (Homo sapiens, UniProt Q9P1W9)
PIM3 = PIM3 (Homo sapiens, UniProt Q86V86)
PLK3 = PLK3 (Homo sapiens, UniProt Q9H4B4)
PRKCA (PKC alpha) = PRKCA (PKC alpha) (Homo sapiens, UniProt P17252)

PIM2, sequence (Q9P1W9 whole entry): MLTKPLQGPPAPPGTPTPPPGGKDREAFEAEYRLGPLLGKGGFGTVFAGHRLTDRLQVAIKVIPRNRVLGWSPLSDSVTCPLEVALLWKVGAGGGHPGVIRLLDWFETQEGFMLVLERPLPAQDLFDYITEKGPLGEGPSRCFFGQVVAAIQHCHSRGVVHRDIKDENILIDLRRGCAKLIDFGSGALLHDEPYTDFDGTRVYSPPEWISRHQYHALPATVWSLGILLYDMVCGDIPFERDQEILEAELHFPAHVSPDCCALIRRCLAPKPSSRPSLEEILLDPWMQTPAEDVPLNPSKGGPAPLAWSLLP
CSNK1D (CK1 delta), sequence (P48730 whole entry): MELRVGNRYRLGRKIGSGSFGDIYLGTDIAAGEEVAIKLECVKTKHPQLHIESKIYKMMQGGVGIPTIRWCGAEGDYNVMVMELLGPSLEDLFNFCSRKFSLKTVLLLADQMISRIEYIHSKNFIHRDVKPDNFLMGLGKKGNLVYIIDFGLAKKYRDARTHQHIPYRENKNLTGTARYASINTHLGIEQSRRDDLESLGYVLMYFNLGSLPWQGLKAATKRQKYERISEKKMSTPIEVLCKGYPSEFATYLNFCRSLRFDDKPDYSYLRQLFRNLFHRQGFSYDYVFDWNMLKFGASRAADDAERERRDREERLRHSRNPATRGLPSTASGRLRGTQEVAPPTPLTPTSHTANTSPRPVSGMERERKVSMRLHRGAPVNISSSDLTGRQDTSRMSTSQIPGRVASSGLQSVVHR
MET (cMet), sequence (P08581 whole entry): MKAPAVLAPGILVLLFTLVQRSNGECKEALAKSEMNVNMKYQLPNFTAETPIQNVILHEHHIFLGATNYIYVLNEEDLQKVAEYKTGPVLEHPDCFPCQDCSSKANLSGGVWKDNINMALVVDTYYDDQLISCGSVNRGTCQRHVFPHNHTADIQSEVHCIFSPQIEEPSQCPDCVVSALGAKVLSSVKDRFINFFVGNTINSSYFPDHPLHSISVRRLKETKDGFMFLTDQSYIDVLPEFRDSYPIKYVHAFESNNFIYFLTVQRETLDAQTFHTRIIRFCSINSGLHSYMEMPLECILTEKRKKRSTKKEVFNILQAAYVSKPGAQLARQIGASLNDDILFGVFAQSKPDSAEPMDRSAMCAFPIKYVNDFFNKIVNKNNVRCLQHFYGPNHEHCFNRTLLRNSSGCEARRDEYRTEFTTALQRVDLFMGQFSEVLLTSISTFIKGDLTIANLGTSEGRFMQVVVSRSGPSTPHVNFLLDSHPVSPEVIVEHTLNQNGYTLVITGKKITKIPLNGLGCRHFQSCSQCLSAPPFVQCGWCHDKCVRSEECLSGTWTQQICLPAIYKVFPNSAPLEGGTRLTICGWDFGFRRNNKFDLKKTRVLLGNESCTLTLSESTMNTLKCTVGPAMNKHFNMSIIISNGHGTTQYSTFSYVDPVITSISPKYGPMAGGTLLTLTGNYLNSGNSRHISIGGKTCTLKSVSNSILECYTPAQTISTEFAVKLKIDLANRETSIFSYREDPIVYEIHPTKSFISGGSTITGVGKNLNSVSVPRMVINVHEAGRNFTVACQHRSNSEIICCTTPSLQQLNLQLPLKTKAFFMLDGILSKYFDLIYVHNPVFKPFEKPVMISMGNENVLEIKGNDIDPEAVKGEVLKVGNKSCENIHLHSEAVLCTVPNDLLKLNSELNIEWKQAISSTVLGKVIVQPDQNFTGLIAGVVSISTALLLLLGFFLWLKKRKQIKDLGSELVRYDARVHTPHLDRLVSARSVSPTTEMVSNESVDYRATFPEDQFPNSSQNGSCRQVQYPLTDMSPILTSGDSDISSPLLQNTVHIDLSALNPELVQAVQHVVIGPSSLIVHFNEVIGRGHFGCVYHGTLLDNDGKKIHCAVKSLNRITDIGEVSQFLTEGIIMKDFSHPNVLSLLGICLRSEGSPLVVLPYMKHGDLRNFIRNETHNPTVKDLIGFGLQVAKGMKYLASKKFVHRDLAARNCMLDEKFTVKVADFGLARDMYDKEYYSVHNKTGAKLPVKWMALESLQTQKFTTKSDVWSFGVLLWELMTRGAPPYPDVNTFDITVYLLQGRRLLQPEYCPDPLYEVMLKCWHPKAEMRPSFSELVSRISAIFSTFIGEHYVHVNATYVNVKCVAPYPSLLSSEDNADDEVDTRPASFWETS
ABL1, sequence (P00519 whole entry): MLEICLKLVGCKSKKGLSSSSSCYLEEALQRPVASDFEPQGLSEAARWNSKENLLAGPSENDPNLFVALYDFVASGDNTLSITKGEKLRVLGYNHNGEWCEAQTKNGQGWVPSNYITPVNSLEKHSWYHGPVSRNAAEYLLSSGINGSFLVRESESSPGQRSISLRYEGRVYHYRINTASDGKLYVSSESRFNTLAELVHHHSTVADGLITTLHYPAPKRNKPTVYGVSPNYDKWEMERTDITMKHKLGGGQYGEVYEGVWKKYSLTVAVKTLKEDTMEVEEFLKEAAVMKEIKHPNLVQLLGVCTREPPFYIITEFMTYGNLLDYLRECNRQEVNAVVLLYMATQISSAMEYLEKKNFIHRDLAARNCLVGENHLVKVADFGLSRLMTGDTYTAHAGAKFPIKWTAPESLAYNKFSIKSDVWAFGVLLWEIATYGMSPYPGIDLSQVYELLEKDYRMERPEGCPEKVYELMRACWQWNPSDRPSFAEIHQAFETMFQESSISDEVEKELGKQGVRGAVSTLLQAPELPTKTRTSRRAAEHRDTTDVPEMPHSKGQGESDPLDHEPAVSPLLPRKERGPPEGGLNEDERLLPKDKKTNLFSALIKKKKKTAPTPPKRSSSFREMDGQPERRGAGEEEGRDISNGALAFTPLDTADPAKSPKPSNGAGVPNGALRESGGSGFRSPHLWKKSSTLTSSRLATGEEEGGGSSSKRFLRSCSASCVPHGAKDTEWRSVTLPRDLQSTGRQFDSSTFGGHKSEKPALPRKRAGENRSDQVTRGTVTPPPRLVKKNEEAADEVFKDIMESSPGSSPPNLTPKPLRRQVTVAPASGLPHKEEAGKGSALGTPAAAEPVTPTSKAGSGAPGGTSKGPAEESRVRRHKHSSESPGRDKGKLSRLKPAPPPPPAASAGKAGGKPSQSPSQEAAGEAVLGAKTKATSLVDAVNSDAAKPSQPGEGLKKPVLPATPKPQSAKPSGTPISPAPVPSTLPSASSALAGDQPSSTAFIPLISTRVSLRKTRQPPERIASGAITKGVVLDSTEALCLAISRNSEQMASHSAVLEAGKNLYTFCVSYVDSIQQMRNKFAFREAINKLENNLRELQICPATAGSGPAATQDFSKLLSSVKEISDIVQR
PLK3, sequence (Q9H4B4 whole entry): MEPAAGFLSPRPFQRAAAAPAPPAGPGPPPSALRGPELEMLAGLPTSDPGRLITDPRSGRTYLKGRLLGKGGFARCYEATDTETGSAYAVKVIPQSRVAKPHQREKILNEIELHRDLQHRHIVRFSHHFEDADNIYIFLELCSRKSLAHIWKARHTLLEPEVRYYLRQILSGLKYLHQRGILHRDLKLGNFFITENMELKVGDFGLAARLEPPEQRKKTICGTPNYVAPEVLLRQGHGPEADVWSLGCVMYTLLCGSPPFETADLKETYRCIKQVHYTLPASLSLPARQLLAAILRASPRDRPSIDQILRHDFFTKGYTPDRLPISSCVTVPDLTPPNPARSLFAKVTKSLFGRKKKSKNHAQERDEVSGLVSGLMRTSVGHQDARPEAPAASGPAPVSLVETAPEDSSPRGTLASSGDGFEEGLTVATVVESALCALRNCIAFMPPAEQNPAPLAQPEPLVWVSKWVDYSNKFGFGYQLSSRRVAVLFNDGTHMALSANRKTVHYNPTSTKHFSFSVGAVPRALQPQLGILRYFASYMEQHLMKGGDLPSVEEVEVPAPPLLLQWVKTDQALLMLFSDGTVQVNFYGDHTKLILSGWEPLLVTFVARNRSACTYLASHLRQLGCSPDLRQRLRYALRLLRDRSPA
EGFR (ErbB1) L858R, sequence (P00533 whole entry L858R): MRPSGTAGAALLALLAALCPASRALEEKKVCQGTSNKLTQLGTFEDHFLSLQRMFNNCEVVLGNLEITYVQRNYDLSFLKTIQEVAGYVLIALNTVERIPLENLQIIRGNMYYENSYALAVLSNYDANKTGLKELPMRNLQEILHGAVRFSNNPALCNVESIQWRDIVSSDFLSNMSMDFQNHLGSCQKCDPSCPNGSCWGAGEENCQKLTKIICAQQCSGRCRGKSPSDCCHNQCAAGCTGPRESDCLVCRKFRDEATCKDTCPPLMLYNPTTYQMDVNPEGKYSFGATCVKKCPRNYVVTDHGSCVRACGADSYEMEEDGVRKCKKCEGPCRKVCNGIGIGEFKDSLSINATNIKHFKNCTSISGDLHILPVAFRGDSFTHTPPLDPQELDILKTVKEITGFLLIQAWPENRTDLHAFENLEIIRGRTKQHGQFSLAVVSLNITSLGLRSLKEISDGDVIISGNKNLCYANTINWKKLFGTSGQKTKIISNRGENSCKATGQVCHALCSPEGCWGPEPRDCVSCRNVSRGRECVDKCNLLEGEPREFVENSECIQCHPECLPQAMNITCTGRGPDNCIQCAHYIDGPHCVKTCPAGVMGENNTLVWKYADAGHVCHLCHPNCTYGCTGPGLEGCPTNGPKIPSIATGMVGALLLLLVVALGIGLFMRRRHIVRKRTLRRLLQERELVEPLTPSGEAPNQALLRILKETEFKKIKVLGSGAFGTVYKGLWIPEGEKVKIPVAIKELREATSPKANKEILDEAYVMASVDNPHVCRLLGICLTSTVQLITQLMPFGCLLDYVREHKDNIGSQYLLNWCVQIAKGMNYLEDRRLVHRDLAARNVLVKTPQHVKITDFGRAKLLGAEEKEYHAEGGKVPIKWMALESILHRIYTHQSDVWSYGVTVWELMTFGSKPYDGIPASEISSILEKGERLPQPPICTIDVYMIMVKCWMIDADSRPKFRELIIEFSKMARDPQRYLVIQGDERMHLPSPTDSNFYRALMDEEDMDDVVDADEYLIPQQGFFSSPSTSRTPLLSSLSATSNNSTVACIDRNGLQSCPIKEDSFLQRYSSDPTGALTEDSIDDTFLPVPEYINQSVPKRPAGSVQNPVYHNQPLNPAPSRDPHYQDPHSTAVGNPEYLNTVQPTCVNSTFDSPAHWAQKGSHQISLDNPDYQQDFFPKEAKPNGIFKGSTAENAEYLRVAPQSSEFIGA

## O=C(CSc1nc2nccnc2c(=O)n1CCc1ccccc1)Nc1nccs1 [compound 1, PITCOIN1]
ABL1
  inhibition at 1 µM: 2.07%
  inhibition at 3 µM: 2.45%
  inhibition at 10 µM: 1.9%
AKT2 (PKB beta)
  inhibition at 1 µM: 4.3%
  inhibition at 3 µM: 3.38%
  inhibition at 10 µM: 4.53%
ALK
  inhibition at 1 µM: 8.08%
  inhibition at 3 µM: 8.57%
  inhibition at 10 µM: 8.82%
BTK
  inhibition at 1 µM: 6.72%
  inhibition at 3 µM: 3.08%
  inhibition at 10 µM: 2.73%
CSNK1D (CK1 delta)
  inhibition at 1 µM: 4.82%
  inhibition at 3 µM: 3.36%
  inhibition at 10 µM: 10%
EGFR (ErbB1)
  inhibition at 1 µM: 2.09%
  inhibition at 3 µM: 1.39%
  inhibition at 10 µM: -0.671%
EGFR (ErbB1) L858R
  inhibition at 1 µM: -0.259%
  inhibition at 3 µM: 2.85%
  inhibition at 10 µM: -1.14%
ERBB4 (HER4)
  inhibition at 1 µM: -3.45%
  inhibition at 3 µM: -1.62%
  inhibition at 10 µM: 0.146%
GSK3B (GSK3 beta)
  inhibition at 1 µM: 2.87%
  inhibition at 3 µM: 1.81%
  inhibition at 10 µM: 2.24%
MAPK11 (p38 beta)
  inhibition at 1 µM: 9.02%
  inhibition at 3 µM: 8.06%
  inhibition at 10 µM: 7.22%
MAPKAPK5 (PRAK)
  inhibition at 1 µM: -1.38%
  inhibition at 3 µM: 1.26%
  inhibition at 10 µM: 0.194%
MET (cMet)
  inhibition at 1 µM: 4.52%
  inhibition at 3 µM: -1.8%
  inhibition at 10 µM: 1.23%
PAK4
  inhibition at 1 µM: 9.59%
  inhibition at 3 µM: 9%
  inhibition at 10 µM: 4.11%
PDGFRA (PDGFR alpha)
  inhibition at 1 µM: 8.94%
  inhibition at 3 µM: 1.9%
  inhibition at 10 µM: 4.84%
PIM2
  inhibition at 1 µM: -5.29%
  inhibition at 3 µM: -3.77%
  inhibition at 10 µM: -7.86%
PIM3
  inhibition at 1 µM: -19.5%
  inhibition at 3 µM: 0.932%
  inhibition at 10 µM: 0.817%
PLK3
  inhibition at 1 µM: 3.02%
  inhibition at 3 µM: 3.24%
  inhibition at 10 µM: 5.6%
PRKCA (PKC alpha)
  inhibition at 1 µM: 6.59%
  inhibition at 3 µM: 10%
  inhibition at 10 µM: 0.714%

## CS(=O)(=O)Nc1cccc(-c2csc(NC(=O)CSc3nc4nccnc4c(=O)n3CCc3ccccc3)n2)c1 [compound 3, PITCOIN3]
ABL1
  inhibition at 1 µM: 1.91%
  inhibition at 3 µM: 4.06%
  inhibition at 10 µM: 4%
AKT2 (PKB beta)
  inhibition at 1 µM: 6.93%
  inhibition at 3 µM: 6.2%
  inhibition at 10 µM: 4.52%
ALK
  inhibition at 1 µM: 17.2%
  inhibition at 3 µM: 10.4%
  inhibition at 10 µM: 10.9%
BTK
  inhibition at 1 µM: 3.1%
  inhibition at 3 µM: 6.59%
  inhibition at 10 µM: 3.91%
CSNK1D (CK1 delta)
  inhibition at 1 µM: 5.88%
  inhibition at 3 µM: 7.07%
  inhibition at 10 µM: 7.02%
EGFR (ErbB1)
  inhibition at 1 µM: -2.95%
  inhibition at 3 µM: 6.63%
  inhibition at 10 µM: 0.555%
EGFR (ErbB1) L858R
  inhibition at 1 µM: 1.72%
  inhibition at 3 µM: 5.21%
  inhibition at 10 µM: -1.6%
ERBB4 (HER4)
  inhibition at 1 µM: -2.57%
  inhibition at 3 µM: -5.3%
  inhibition at 10 µM: -3.59%
GSK3B (GSK3 beta)
  inhibition at 1 µM: -0.953%
  inhibition at 3 µM: -1.98%
  inhibition at 10 µM: -4.59%
MAPK11 (p38 beta)
  inhibition at 1 µM: 10.5%
  inhibition at 3 µM: 8.66%
  inhibition at 10 µM: 4.91%
MAPKAPK5 (PRAK)
  inhibition at 1 µM: -3.78%
  inhibition at 3 µM: 2.14%
  inhibition at 10 µM: -2.49%
MET (cMet)
  inhibition at 1 µM: 4.73%
  inhibition at 3 µM: 8.1%
  inhibition at 10 µM: -2.17%
PAK4
  inhibition at 1 µM: 4.8%
  inhibition at 3 µM: 3.9%
  inhibition at 10 µM: 2.41%
PDGFRA (PDGFR alpha)
  inhibition at 1 µM: 1.77%
  inhibition at 3 µM: 20.1%
  inhibition at 10 µM: 16.3%
PIM2
  inhibition at 1 µM: -0.888%
  inhibition at 3 µM: -5.98%
  inhibition at 10 µM: -4.75%
PIM3
  inhibition at 1 µM: -2.65%
  inhibition at 3 µM: -27.1%
  inhibition at 10 µM: -12.5%
PLK3
  inhibition at 1 µM: 3.58%
  inhibition at 3 µM: 4.83%
  inhibition at 10 µM: 4.26%
PRKCA (PKC alpha)
  inhibition at 1 µM: 0.445%
  inhibition at 3 µM: 18.8%
  inhibition at 10 µM: 15.2%

Source: publication PMC7613998, “Development of selective inhibitors of phosphatidylinositol 3-kinase C2α” (Nature Chemical Biology, 2022)
